# Laboratory results published in PubChem BioAssay (NCI).
#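 Assay format: 96-well plates, 48-hour exposure. GI50: concentration for 50% inhibition of growth. The concentration for full growth arrest is given as TGI.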
# Experiments:
# Experiment in all cases: NCI tumour cell line growth inhibition, 48 h
# [1] = test system: HOP-92 NSCLC
# [2] = test system: SK-OV-3 ovarian
# [3] = test system: IGROV1 ovarian
# [4] = test system: OVCAR-3 ovarian
# [5] = test system: HS 578T breast
# [6] = test system: SR leukemia
# [7] = test system: OVCAR-5 ovarian
# [8] = test system: HCC-2998 colon
# [9] = test system: SW-620 colon
# [10] = test system: MCF7 breast
Compound,GI50 [1],TGI [1],GI50 [2],TGI [2],GI50 [3],TGI [3],GI50 [4],TGI [4],GI50 [5],TGI [5],GI50 [6],TGI [6],GI50 [7],TGI [7],GI50 [8],TGI [8],GI50 [9],TGI [9],GI50 [10],TGI [10]
COc1ccc(-c2cc(/C=C/C(=O)c3cc(OC)c(OC)c(OC)c3)[nH]n2)cc1OC,1.61 µM,5.48 µM,5.47 µM,19 µM,2.72 µM,8.61 µM,1.59 µM,3.15 µM,2.91 µM,22.2 µM,0.22 µM,2.26 µM,1.76 µM,4.31 µM,1.9 µM,3.4 µM,1.5 µM,4.16 µM,–,–
CC1(C)C2CCC13C(=O)C1OC3(C2)C2C(=O)c3c(O)cccc3C(=O)C12 (stereo unspecified),0.566 µM,1.89 µM,10.9 µM,23.9 µM,–,–,0.18 µM,0.648 µM,0.988 µM,2.86 µM,–,–,4.25 µM,13.7 µM,1.94 µM,4.16 µM,–,–,3.37 µM,15.4 µM
COc1ccccc1/C=C\C(=O)c1ccccc1,11.9 µM,31.5 µM,13.7 µM,26.5 µM,5.14 µM,18.1 µM,7.43 µM,19.3 µM,–,–,2.77 µM,18 µM,17.7 µM,32.5 µM,7.34 µM,19.9 µM,–,–,1.92 µM,12.6 µM
C/C(=N/O)c1ccc2c(c1)C(=NO)c1cc(/C(C)=N/O)ccc1-2,–,47.4 µM,–,36.5 µM,–,49.2 µM,–,39.3 µM,–,–,–,> 100 µM,–,31.6 µM,–,33.9 µM,–,34.8 µM,–,–
CC(=O)OCCC(O[Si](c1ccccc1)(c1ccccc1)C(C)(C)C)C(C)(C)O (stereo unspecified),–,65.1 µM,–,> 100 µM,–,> 100 µM,–,62.2 µM,–,–,–,–,–,> 100 µM,–,–,–,> 100 µM,–,–
CC(=O)[CH-]C(=O)c1ccccc1.CC(=O)[CH-]C(=O)c1ccccc1.[CH2-]CCC.[CH2-]CCC.[Sn+4],–,–,2.27 µM,3.99 µM,1.57 µM,3.28 µM,1.3 µM,2.62 µM,–,–,–,–,2.07 µM,3.59 µM,–,–,0.283 µM,0.964 µM,–,–
CC12OC(C(=O)C13CCC3)C1C(=O)c3ccccc3C(=O)C12 (stereo unspecified),> 100 µM,> 100 µM,> 100 µM,> 100 µM,> 100 µM,> 100 µM,–,–,> 100 µM,> 100 µM,–,–,> 100 µM,> 100 µM,–,–,–,–,> 100 µM,> 100 µM
O=[N+]([O-])C1C2C=CC(C2)[C@H]1c1ccc(Cl)cc1Cl (stereo partly specified),–,> 100 µM,–,–,–,–,–,–,–,–,–,> 100 µM,–,> 100 µM,–,> 100 µM,–,> 100 µM,–,–
NC(=O)c1c[se]c(C2OC(COP(=O)(O)CP(=O)(O)OCC3OC(n4cnc5c(N)ncnc54)C(O)C3O)C(O)C2O)n1 (stereo unspecified),–,> 100 µM,–,> 100 µM,–,> 100 µM,–,> 100 µM,–,–,–,> 100 µM,–,> 100 µM,–,–,–,> 100 µM,–,–
COc1ccc(C2NCCc3c2[nH]c2ccccc32)cc1 (stereo unspecified),–,> 100 µM,–,> 100 µM,–,> 100 µM,–,> 100 µM,–,–,–,91.5 µM,–,> 100 µM,–,65.1 µM,–,> 100 µM,–,–
O=C1C(c2ccccc2)=C(c2ccccc2)[C@H](c2ccccc2)[C@]1(Cc1nnn(-c2ccc([N+](=O)[O-])cc2)c1N1CCOCC1)c1ccccc1,–,2.25 µM,–,> 37.5 µM,–,> 37.5 µM,–,> 37.5 µM,–,–,–,–,–,–,–,> 37.5 µM,–,> 37.5 µM,–,–
NC(N)=N/N=C/c1c(-c2ccc(Cl)c([N+](=O)[O-])c2)nc2n1CCS2,–,–,24.7 µM,75.1 µM,–,–,1.93 µM,3.91 µM,–,–,–,–,14.6 µM,27.8 µM,–,–,–,–,–,–
COc1nc2c(c(O)c(C)c(=O)n2OC2OC(COC(C)=O)C(OC(C)=O)C(OC(C)=O)C2OC(C)=O)c(=O)n1C (stereo unspecified),–,–,–,–,–,> 100 µM,–,–,–,–,–,> 100 µM,–,> 100 µM,–,> 100 µM,–,> 100 µM,–,–
COc1ccc2[nH]c3c(=O)[nH]ncc3c2c1,–,> 100 µM,–,> 100 µM,–,> 100 µM,–,> 100 µM,–,–,–,> 100 µM,–,> 100 µM,–,> 100 µM,–,> 100 µM,–,–
COc1ccc(CC2=NCCc3cc(OC)c(OC)cc32)cc1Br,–,33.7 µM,–,> 100 µM,–,–,–,–,–,–,–,91.1 µM,–,8.32 µM,–,35.6 µM,–,> 100 µM,–,–
COc1cc2cccc(N=Cc3c(Br)ccc(OC)c3OC(C)C)c2cc1OC,–,–,–,> 100 µM,–,> 100 µM,–,> 100 µM,–,–,–,–,–,> 100 µM,–,> 100 µM,–,> 100 µM,–,–
CC(C)(C)c1cc(CCC(=O)Nc2ccc(Cl)cc2Cl)nc(N)n1,–,> 100 µM,–,> 100 µM,–,> 100 µM,–,> 100 µM,–,–,–,> 100 µM,–,> 100 µM,–,> 100 µM,–,> 100 µM,–,–
Cc1ccccc1NC(=O)C(=O)CC(=O)c1ccc([N+](=O)[O-])cc1,–,> 100 µM,–,> 100 µM,–,> 100 µM,–,> 100 µM,–,–,–,–,–,> 100 µM,–,> 100 µM,–,> 100 µM,–,–
